{"source": "paper PMC5412352", "about": "(International Journal of Molecular Sciences, 2017)", "key": {"[1]": {"assay": "HPLC-based chromatographic hydrophobicity index on immobilized artificial membranes (CHI IAM)", "type": "physicochemical", "settings": "IAM PC DD2 column, acetonitrile / 50 mM ammonium acetate gradient", "description": "Physicochemical properties of a drug such as lipophilicity and non-specific binding to membranes and plasma proteins are crucial parameters of a potential radiotracer, in particular if it is supposed to pass the blood brain barrier (BBB). The lipophilicity (logD7.4) was estimated using the commercially available ACD/Labs-12.5 software and the non-specific binding was estimated by the high-performance liquid chromatography (HPLC)-based hydrophobicity index at immobilized artificial membranes (CHI IAM) for seven fluorine substituted candidate molecules and (S)-13 without fluorine (Table 3).\nThe chromatographic hydrophobicity index on immobilized artificial membranes (CHI IAM) was experimentally determined by a HPLC method described by Valko and co-workers using a IAM PC DD2 column (100 × 4.6 mm, […], Regis Technologies, IL, USA), a gradient of acetonitrile, and 50 mM ammonium acetate as eluent and acetanilide, acetophenone, 1,4-dinitrobenzene, anisole propiophenone, valerophenone, and octanophenone as references."}, "[2]": {"target": "T1, hGhrR (COS7 cells stably transfected with hGhrR) (Homo sapiens, UniProt Q92847)", "T1 construct": "expressed in transfected cells", "T1 sequence (Q92847 whole entry)": "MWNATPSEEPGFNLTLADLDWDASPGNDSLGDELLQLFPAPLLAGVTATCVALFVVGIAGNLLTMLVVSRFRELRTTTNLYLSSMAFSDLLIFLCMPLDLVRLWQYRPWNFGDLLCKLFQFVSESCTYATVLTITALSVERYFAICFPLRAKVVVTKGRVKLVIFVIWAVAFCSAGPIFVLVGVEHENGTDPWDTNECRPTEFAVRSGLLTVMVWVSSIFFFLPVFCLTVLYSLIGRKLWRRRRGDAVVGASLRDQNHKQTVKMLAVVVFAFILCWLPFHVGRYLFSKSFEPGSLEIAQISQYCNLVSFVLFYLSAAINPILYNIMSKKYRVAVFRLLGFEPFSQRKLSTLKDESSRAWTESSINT", "assay": "Inositol phosphate accumulation assay, antagonistic potency with 10^-8 M ghrelin", "type": "cell-based", "method": "Antagonistic properties at the hGhrR\nantagonistic potency in an inositol phosphate accumulation assay (Table S1). The receptor was\nTable S1. Inositol phosphate accumulation assay to determine antagonistic potencies of candidate\nCompounds were analyzed by inositol phosphate accumulation in COS7 cells stably"}, "[3]": {"system": "adrenergic α1BRs", "assay": "Commercial screening by Eurofins Panlabs", "type": "binding"}, "[4]": {"target": "T2, chemokine CXCR3Rs (Homo sapiens, UniProt P49682)", "T2 construct": "Eurofins Panlabs (Taiwan), contract screening", "T2 sequence (P49682 1-368)": "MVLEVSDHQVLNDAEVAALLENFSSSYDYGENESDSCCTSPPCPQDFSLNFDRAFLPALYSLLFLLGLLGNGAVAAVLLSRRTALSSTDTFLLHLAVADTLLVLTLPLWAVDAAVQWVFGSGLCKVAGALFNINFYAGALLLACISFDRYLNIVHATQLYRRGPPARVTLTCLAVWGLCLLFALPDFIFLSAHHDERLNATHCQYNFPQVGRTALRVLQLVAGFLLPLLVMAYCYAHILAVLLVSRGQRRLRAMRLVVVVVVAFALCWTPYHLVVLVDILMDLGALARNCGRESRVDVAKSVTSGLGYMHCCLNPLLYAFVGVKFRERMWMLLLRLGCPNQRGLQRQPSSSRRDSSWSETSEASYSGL", "assay": "Commercial screening by Eurofins Panlabs", "type": "binding"}, "[5]": {"target": "T3, serotonin 5-HT2BRs (Homo sapiens, UniProt P41595)", "T3 construct": "Eurofins Panlabs (Taiwan), contract screening", "T3 sequence (P41595 whole entry)": "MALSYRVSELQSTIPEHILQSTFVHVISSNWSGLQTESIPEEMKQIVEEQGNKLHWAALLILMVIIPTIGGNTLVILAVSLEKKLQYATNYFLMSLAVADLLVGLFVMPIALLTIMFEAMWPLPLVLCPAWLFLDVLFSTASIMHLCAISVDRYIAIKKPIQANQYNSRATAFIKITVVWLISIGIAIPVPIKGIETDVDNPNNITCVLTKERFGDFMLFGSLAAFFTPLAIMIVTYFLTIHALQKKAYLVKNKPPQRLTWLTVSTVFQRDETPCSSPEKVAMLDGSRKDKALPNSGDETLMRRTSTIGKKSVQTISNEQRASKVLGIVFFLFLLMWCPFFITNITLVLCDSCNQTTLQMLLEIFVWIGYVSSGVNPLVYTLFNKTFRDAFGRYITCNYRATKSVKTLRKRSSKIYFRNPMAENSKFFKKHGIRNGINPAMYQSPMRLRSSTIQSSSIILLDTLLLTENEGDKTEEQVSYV", "assay": "Commercial screening by Eurofins Panlabs", "type": "binding"}}, "note": "“Also recorded” adds a separate entry of the source.", "data": [{"molecule": "Cc1nc2ccc(Oc3ccc(Br)cc3F)nc2c(=O)n1C[C@H]1CCCN(C(C)C)C1", "note": "[(S)-9, (S)-6-(4-Bromo-2-fluorophenoxy)-3-((1-isopropylpiperidin-3-yl)methyl)-2-methylpyrido[3,2-d]pyrimidin-4(3H)-one]", "values": [{"measurement": "CHI IAM", "setting": "[1]", "result": 43.0}, {"measurement": "IC50", "setting": "[2]; 5 min pre-stimulation with compound, then 10^-8 M ghrelin, read-out: IC50 (antagonistic potency)", "result": 24.8, "unit": "nM"}, {"measurement": "Emax", "setting": "[2]; COS-7, read-out: Emax (antagonistic efficacy)", "result": "38 ± 4", "unit": "%"}, {"measurement": "significant response (≥50% inhibition or stimulation)", "setting": "[3]", "result": "did not show significant responses; also recorded: did not show significant binding"}, {"measurement": "significant response (≥50% inhibition or stimulation)", "setting": "[4]", "result": "did not show significant responses; also recorded: did not show significant binding"}, {"measurement": "significant response (≥50% inhibition or stimulation)", "setting": "[5]", "result": "did not show significant responses; also recorded: did not show significant binding"}]}]}
